Ends that are not written are not given here.
Assay: Stability of KDIP in mouse serum in vitro (LC-MS/MS)
Assay type: in vitro ADME
Conditions: 10 pmol KDIP spiked to 10 μl serum, room temperature, 0-160 min (7 times), LC-MS/MS MRM, n=3 per time
Protocol: Experiment for stability in serum was conducted with seven different incubation time (0, 5, 10, 20, 40, 80, 160 min). KDIP 10 pmol was spiked to 10 μl of serum, and samples were incubated at room temperature. Samples for each incubation time were triplicated.
Peptide extraction from serum or tissue lysate was performed by solid‐phase extraction using Oasis HLB Cartridge 1‐cm^3 (30 mg). HLB cartridges were conditioned using ACN (1 ml) and 50% ACN, .5% FA (1 ml), followed by equilibration using .5% FA (2 ml). A volume of 10‐μl serum and 20 μl of tissue lysate were added by .5% FA to be 1 ml and were loaded on equilibrated cartridges. […]
Each sample was analysed using an Agilent 1100 Series high‐performance liquid chromatography pump (Agilent Technologies, USA) coupled to an LTQ linear ion trap mass spectrometer (Thermo Finnigan, USA). […] Peptide was quantified by multiple reaction monitoring (MRM) in positive ion mode, with a spray voltage of 2.3 kV. […] Furthermore, truncated forms ([…], […]) of KDIP that were detected during stability test were also analysed by following transitions: 468.5 → 404.8 (b16 ^+5), 468.5 → 444.85 (b18 ^+5), 468.5 → 505.7 (b16 ^+4), 468.5 → 551.35 (b18 + H2O^+4), 468.5 → 555.7 (b18 ^+4), 528.45 → 448.85 (b14 ^+4), 528.45 → 499.0 (b16 ^+4), 528.45 → 598.15 (b14 ^+3), 528.45 → 659.25 (b16 + H2O^+3) and 528.45 → 664.95 (b16 ^+3). […]

- terminal half-life in mouse serum in vitro: 30.86 min
Sequence: YARVRRRGPRRWRLVSDEAV [KDIP]

Source: paper PMC9296036, “A peptide interfering with the dimerization of oncogenic KITENIN protein and its stability suppresses colorectal tumour progression” (Clinical and Translational Medicine, 2022)
